{"source": "patent US20230173098A1", "about": "“NANOPARTICLE COMPLEX FOR ORAL ADMINISTRATION AND USES THEREOF” (IUCF-HYU (Industry-University Cooperation Foundation …, priority 2021, published 2023)", "key": {"Caco-2 cell monolayer": {"system": "Caco-2 cell monolayer", "format": "in vitro ADME, human", "method": "Specifically, small intestine […] cells (Caco-2) were inoculated onto a Transwell insert with a diameter of 6.5 mm and a pore size of […] (seeding density: 2×10^4 cells/insert; Corning, Inc., Corning, N.Y., USA).\nAfter the Caco-2 were incubated for approximately 2 to 3 weeks in a CO2 incubator, trans epithelial electrical resistance (TEER) was measured using a voltmeter (EVOM^2; World Precision Instruments, Sarasota, Fla., USA) to confirm tight junctions. In this case, the TEER value […] was used for the assay. […] During the treatment, TEER values were measured at each designated time, and the results are illustrated in FIG. 18.\nPretreated-Lf/Ce6-AuNP-Lf was used to examine passive transport excluding lactoferrin receptor (LfR)-mediated transport.\nReferring to this, Lf pretreatment (pretreated-Lf) was performed to saturate LfR expressed in the Caco-2 cell monolayer, and two hours after Lf pretreatment (pretreated-Lf), the medium was exchanged with a Ce6-AuNP-Lf-containing medium."}, "[1]": {"assay": "Photobleaching of Ce6 fluorescence under PDT laser (671 nm)", "format": "physicochemical", "conditions": "10 minutes PDT laser 671 nm; Ce6 equivalent 2.5 μM in ethanol", "method": "In this case, each sample (Ce6 equivalent concentration of 2.5 μM) was dissolved in ethanol and irradiated with a PDT laser (MRL-III-671, 671±1 nm, China) for 10 minutes, and then the photobleaching of Ce6 fluorescence (λ excitation/λ emission=400 nm/671 nm) of each sample was measured according to laser irradiation time, and the results are illustrated in FIG. 10."}, "[2]": {"system": "brain tumor cells (U87MG)", "assay": "Uptake into brain tumor cells (confocal, FACS)", "format": "cell-based, human", "conditions": "Ce6 equivalent 2.5 μM, 18 hours", "method": "Next, DAPI mounting medium (Vector Laboratories, Inc., Burlingame, Calif., USA) was used and the intracellular Ce6 fluorescence was observed under a confocal microscope (TCS SP5, Leica, Germany).\nMeanwhile, flow cytometry (FACS Calibur™; BD Biosciences, Franklin Lakes, N.J.) was used to quantify the intracellular Ce6 fluorescence. […] After washing three times with PBS, the cells were detached with trypsin/EDTA, centrifuged for 3 minutes at 1000 rpm, and then analyzed with FACS."}, "[3]": {"system": "brain tumor (U87MG) cells", "assay": "Phototherapy of brain tumor cells: viability, Annexin V/PI apoptosis, DCFH-DA ROS", "format": "cell-based, human", "conditions": "PDT+PTT, 2.5 minutes each", "method": "Cell viability was measured with an EZ-Cytox kit.\nMeanwhile, the intracellular ROS generation by laser irradiation was measured using the fluorescent probe DCFH-DA according to the manufacturer's instructions. Annexin V-DY-634/PI apoptosis was used to evaluate apoptosis. That is, brain tumor (U87MG) cells were suspended in 400 μL binding buffer, and then stained with Annexin V-DY-634 (5 μL) at 2 to 8° C. for 15 minutes. Next, PI (5 μL) was added and the cells were incubated for 5 min. In this case, brain tumor (U87MG) cells were analyzed using FACS."}, "[4]": {"assay": "Surface charge measurement (Zetasizer Nano ZS)", "format": "physicochemical", "conditions": "mean±SEM, n=3, in mV (unit assumed)"}, "[5]": {"assay": "Hydrophobic assay (water/octanol phase transition, absorbance at 400 nm and 671 nm)", "format": "physicochemical", "conditions": "dissolved in DW, octanol added"}}}
{"substance": "Chlorin e6 [Ce6]", "values": [{"measurement": "transmittance / amount transported across the barrier", "setting": "Caco-2 cell monolayer", "result": "about 47.6%"}, {"measurement": "Ce6 fluorescence after PDT laser irradiation (photobleaching)", "setting": "[1]", "result": "57.0±5.6", "unit": "%"}, {"measurement": "amount of uptake into the cells (FACS, intracellular Ce6 fluorescence)", "setting": "[2]", "result": "43.6±2.2"}, {"measurement": "apoptotic cell population (Annexin-V+/PI+)", "setting": "[3]", "result": 22.0, "unit": "%"}, {"measurement": "surface charge", "setting": "[4]", "result": "−9.4±4.3"}, {"measurement": "hydrophobicity", "setting": "[5]", "result": "hydrophobic"}]}
